Experimental data taken from patent US6525059B1, “Substituted pyrazoles as p38 kinase inhibitors” (G. D. Searle & Company, priority 1998, dated 2003).

Assays:
human p38 kinase alpha = target: T1, human p38 kinase alpha (Homo sapiens, UniProt Q16539); experiment: p38 kinase in vitro assay, phosphorylation of biotinylated PHAS-I with gamma 32P-ATP; type: biochemical; details: for inhibition at 1 µM / inhibition at 10 µM: read-out: P38 alpha kinase % inhib @ conc.; for IC50: read-out: P38 alpha kinase IC50
T1 construct: The coding region of the human p38a cDNA was obtained by PCR-amplification from RNA isolated from the human monocyte cell line THP.1; GST (N); made in house; host or cells: E. coli DH10B
Outline: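 Radiometric filter-capture read-out: streptavidin plates trap biotin-PHAS-I labelled by activated (MKK6) human p38α from γ-32P-ATP. Buffer 25 mM HEPES pH 7.5, 10 mM magnesium acetate, 50 μM cold ATP; reactions 1 h or overnight at 30 °C; inhibitors 10-fold dilutions 100 to 0.001 μM, triplicates, 1% DMSO.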

TNF-α = experiment: LPS stimulation of TNF production by U937 cells; type: cell-based, human; details: for inhibition at 1 µM / IC50: Homo sapiens; for inhibition at 1 µM: U-937, @ 1.0 uM, read-out: U937 Cell % inhib @ conc.; for IC50: U-937, TNF production, LPS-stimulated human U937 cells, read-out: U937 Cell IC50
Procedure: Fifty million cells in 100 ml media were induced to terminal monocytic differentiation by 24 hour incubation with 20 ng/ml phorbol 12-myristate 13-acetate (Sigma). The cells were washed by centrifugation (200×g for 5 min) and resuspended in 100 ml fresh medium. After 24-48 hours, the cells were harvested, centrifuged, and resuspended in culture medium at 2 million cells/ml.
Compounds were prepared as 10 mM stock solutions in DMSO and diluted in culture medium to yield a final DMSO concentration of 0.1% in the cell assay. LPS (E coli, 100 ng/ml final concentration) was then added at a volume of 0.02 ml. After 4 hour incubation at 37° C., the amount of TNF-α released in the culture medium was quantitated by ELISA. Inhibitory potency is expressed as IC50 (μM).
In vitro whole cell assay for measuring the ability of the compounds to inhibit TNF production in human U937 cells stimulated with LPS are shown in the column identified as: […]

T1 sequence (Q16539 whole entry): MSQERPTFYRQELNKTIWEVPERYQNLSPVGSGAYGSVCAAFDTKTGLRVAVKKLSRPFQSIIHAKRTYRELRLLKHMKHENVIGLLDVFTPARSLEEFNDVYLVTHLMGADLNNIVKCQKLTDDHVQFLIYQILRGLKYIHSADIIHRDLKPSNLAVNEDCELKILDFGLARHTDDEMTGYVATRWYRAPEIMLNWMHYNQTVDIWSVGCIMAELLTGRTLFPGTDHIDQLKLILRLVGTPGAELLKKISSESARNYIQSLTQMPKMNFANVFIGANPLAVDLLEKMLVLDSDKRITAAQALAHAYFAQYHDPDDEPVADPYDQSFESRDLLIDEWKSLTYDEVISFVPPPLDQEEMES

| Compound | inhibition at 1 µM (human p38 kinase alpha) [%] | inhibition at 10 µM (human p38 kinase alpha; @ 10.0 uM) [%] | inhibition at 1 µM (TNF-α) [%] | further results |
| --- | --- | --- | --- | --- |
| O=S(=O)(NCc1[nH]nc(-c2ccc(F)cc2)c1-c1ccncc1)c1cc(Cl)cc(Cl)c1O [Example B-0103] | 71 |  | 6 |  |
| O=S(=O)(NCc1[nH]nc(-c2ccc(F)cc2)c1-c1ccncc1)c1ccc(F)cc1 [Example B-0104] | 56 |  |  | IC50 (TNF-α): 2780 nM |
| CCS(=O)(=O)NCc1[nH]nc(-c2ccc(F)cc2)c1-c1ccncc1 [Example B-0105] | 78 |  |  | IC50 (TNF-α): 5000 nM |
| CC(C)S(=O)(=O)NCc1[nH]nc(-c2ccc(F)cc2)c1-c1ccncc1 [Example B-0106] | 62 |  |  | IC50 (TNF-α): 5000 nM |
| CS(=O)(=O)NCc1[nH]nc(-c2ccc(F)cc2)c1-c1ccncc1 [Example B-0107] |  |  |  | IC50 (human p38 kinase alpha): 270 nM; IC50 (TNF-α): 5000 nM |
| O=[N+]([O-])c1cccc(S(=O)(=O)NCc2[nH]nc(-c3ccc(F)cc3)c2-c2ccncc2)c1 [Example B-0114] | 45 |  |  | IC50 (TNF-α): 3920 nM |
| Cc1ccc(S(=O)(=O)NCc2[nH]nc(-c3ccc(F)cc3)c2-c2ccncc2)cc1 [Example B-0118] |  |  |  | IC50 (human p38 kinase alpha): 1180 nM; IC50 (TNF-α): 1290 nM |
| CN(C)c1cccc2c(S(=O)(=O)NCc3[nH]nc(-c4ccc(F)cc4)c3-c3ccncc3)cccc12 [Example B-0122] |  | 79 | 2 |  |
| CC(C)c1ccc(S(=O)(=O)NCc2[nH]nc(-c3ccc(F)cc3)c2-c2ccncc2)cc1 [Example B-0123] | 59 |  |  | IC50 (TNF-α): > 1000 nM |
| Cc1c(Cl)cccc1S(=O)(=O)NCc1[nH]nc(-c2ccc(F)cc2)c1-c1ccncc1 [Example B-0124] | 73 |  | 15 |  |
| CCCCOc1ccc(S(=O)(=O)NCc2[nH]nc(-c3ccc(F)cc3)c2-c2ccncc2)cc1 [Example B-0129] | 51 |  | 31 |  |
| CCc1ccc(S(=O)(=O)NCc2[nH]nc(-c3ccc(F)cc3)c2-c2ccncc2)cc1 [Example B-0132] | 76 |  | 8 |  |
| O=S(=O)(NCc1[nH]nc(-c2ccc(F)cc2)c1-c1ccncc1)c1ccc(F)cc1F [Example B-0134] | 60 |  |  | IC50 (TNF-α): 2170 nM |
| COc1ccc(S(=O)(=O)NCc2[nH]nc(-c3ccc(F)cc3)c2-c2ccncc2)c([N+](=O)[O-])c1 [Example B-0141] | 78 |  | 10 |  |
| CCCCCCCCS(=O)(=O)NCc1[nH]nc(-c2ccc(F)cc2)c1-c1ccncc1 [Example B-0142] | 86 |  | 12 |  |
| CC(C)NC(=O)NCc1[nH]nc(-c2ccc(F)cc2)c1-c1ccncc1 [Example B-0149] |  |  |  | IC50 (human p38 kinase alpha): 1150 nM; IC50 (TNF-α): 10000 nM |

| Compound | inhibition at 1 µM (human p38 kinase alpha) [%] | inhibition at 10 µM (human p38 kinase alpha; @ 10.0 uM) [%] | inhibition at 1 µM (TNF-α) [%] | further results |
| --- | --- | --- | --- | --- |
| CCCCCc1ccc(NC(=O)NCc2[nH]nc(-c3ccc(F)cc3)c2-c2ccncc2)cc1 [Example B-0156] |  |  |  | P38 alpha kinase % inhib @ conc. (human p38 kinase alpha; @ 10.0 uM): 42.0% @ 10.0 uM; U937 Cell % inhib @ conc. (TNF-α; @ 1.0 uM): 13.0% @ 1.0 uM |
| COc1cc(OC)c(NC(=O)NCc2[nH]nc(-c3ccc(F)cc3)c2-c2ccncc2)cc1Cl [Example B-0187] |  | 4 | 14 |  |
| CCOC(=O)C(CC(C)C)NC(=O)NCc1[nH]nc(-c2ccc(F)cc2)c1-c1ccncc1 (stereo not shown) [Example B-0189] |  | 42 | 9 |  |
| COc1cc(NC(=O)NCc2[nH]nc(-c3ccc(F)cc3)c2-c2ccncc2)cc(OC)c1OC [Example B-0191] | 40 |  | 29 |  |
| O=C(NCc1[nH]nc(-c2ccc(F)cc2)c1-c1ccncc1)[C@@H]1CCCN1C(=O)OCC1c2ccccc2-c2ccccc21 [Example B-0195] |  |  | 55 | IC50 (human p38 kinase alpha): 1030 nM |
| O=C(NCc1[nH]nc(-c2ccc(F)cc2)c1-c1ccncc1)[C@H]1CCCN1 [Example B-0196] |  |  |  | IC50 (human p38 kinase alpha): 2240 nM; IC50 (TNF-α): > 1000 nM |
| O=C(NCc1[nH]nc(-c2ccc(F)cc2)c1-c1ccncc1)[C@H]1CCCN1C(=O)OCC1c2ccccc2-c2ccccc21 [Example B-0197] |  |  | 14 | IC50 (human p38 kinase alpha): 2000 nM |
| O=C(NCc1[nH]nc(-c2ccc(F)cc2)c1-c1ccncc1)c1ccccn1 [Example B-0198] |  |  | 2 | IC50 (human p38 kinase alpha): 1200 nM |
| O=C(NCc1[nH]nc(-c2ccc(F)cc2)c1-c1ccncc1)c1ccncc1 [Example B-0199] |  |  | 3 | IC50 (human p38 kinase alpha): 1340 nM |
| O=C(NCc1[nH]nc(-c2ccc(F)cc2)c1-c1ccncc1)c1cccnc1 [Example B-0200] |  |  | 16 | IC50 (human p38 kinase alpha): 1310 nM |
| CC(Oc1ccccc1)C(=O)NCc1[nH]nc(-c2ccc(F)cc2)c1-c1ccncc1 (stereo not shown) [Example B-0202] |  |  |  | IC50 (human p38 kinase alpha): 550 nM; IC50 (TNF-α): 2260 nM |
| CCCOC(=O)NCc1[nH]nc(-c2ccc(F)cc2)c1-c1ccncc1 [Example B-0203] |  |  | 65 | IC50 (human p38 kinase alpha): 160 nM |
| CCOC(=O)NCc1[nH]nc(-c2ccc(F)cc2)c1-c1ccncc1 [Example B-0204] |  |  | 48 | IC50 (human p38 kinase alpha): 210 nM |
| CC(C)OC(=O)NCc1[nH]nc(-c2ccc(F)cc2)c1-c1ccncc1 [Example B-0205] |  |  | 54 | IC50 (human p38 kinase alpha): 96 nM |
| O=C(NCc1[nH]nc(-c2ccc(F)cc2)c1-c1ccncc1)c1cnc2ccccc2n1 [Example B-0206] |  |  | 14 | IC50 (human p38 kinase alpha): 5760 nM |
| COC(=O)NCc1[nH]nc(-c2ccc(F)cc2)c1-c1ccncc1 [Example B-0207] |  |  | 52 | IC50 (human p38 kinase alpha): 120 nM |

Continued, in another order:

| inhibition at 1 µM (human p38 kinase alpha) [%] | inhibition at 10 µM (human p38 kinase alpha; @ 10.0 uM) [%] | Compound | inhibition at 1 µM (TNF-α) [%] | further results |
| --- | --- | --- | --- | --- |
| 61 |  | COC(=O)c1ccccc1S(=O)(=O)NCc1[nH]nc(-c2ccc(F)cc2)c1-c1ccncc1 [Example B-0108] |  | IC50 (TNF-α): 4850 nM |
| 66 |  | O=S(=O)(NCc1[nH]nc(-c2ccc(F)cc2)c1-c1ccncc1)c1ccc2ccccc2c1 [Example B-0110] | 13 |  |
| 57 |  | O=S(=O)(NCc1[nH]nc(-c2ccc(F)cc2)c1-c1ccncc1)c1cccc2ccccc12 [Example B-0111] |  | IC50 (TNF-α): > 1000 nM |
|  | 89 | O=S(=O)(/C=C\c1ccccc1)NCc1[nH]nc(-c2ccc(F)cc2)c1-c1ccncc1 [Example B-0119] |  | IC50 (TNF-α): 2780 nM |
|  | 54 | CSc1cccc(NC(=O)NCc2[nH]nc(-c3ccc(F)cc3)c2-c2ccncc2)c1 [Example B-0145] | 12 |  |
|  | 77 | O=C(NCc1[nH]nc(-c2ccc(F)cc2)c1-c1ccncc1)NC(=O)c1ccccc1 [Example B-0146] | 28 |  |
| 57 |  | O=C(NCc1[nH]nc(-c2ccc(F)cc2)c1-c1ccncc1)N[C@@H]1C[C@@H]1c1ccccc1 [Example B-0153] | 21 |  |
|  | 65 | CCOC(=O)c1cccc(NC(=O)NCc2[nH]nc(-c3ccc(F)cc3)c2-c2ccncc2)c1 [Example B-0154] | 14 |  |
|  | 48 | O=C(NCCc1ccccc1)NCc1[nH]nc(-c2ccc(F)cc2)c1-c1ccncc1 [Example B-0157] | 9 |  |
|  | 72 | CCOC(=O)c1ccc(NC(=O)NCc2[nH]nc(-c3ccc(F)cc3)c2-c2ccncc2)cc1 [Example B-0161] | 13 |  |
|  | 20 | O=C(NCc1[nH]nc(-c2ccc(F)cc2)c1-c1ccncc1)Nc1ccc(C(F)(F)F)cc1 [Example B-0163] | 10 |  |
|  | 37 | O=C(NCc1[nH]nc(-c2ccc(F)cc2)c1-c1ccncc1)Nc1cc(Cl)cc(Cl)c1 [Example B-0164] | 20 |  |
| 44 |  | Cc1cccc(C)c1NC(=O)NCc1[nH]nc(-c2ccc(F)cc2)c1-c1ccncc1 [Example B-0168] |  | IC50 (TNF-α): 2360 nM |
| 43 |  | CCc1ccccc1NC(=O)NCc1[nH]nc(-c2ccc(F)cc2)c1-c1ccncc1 [Example B-0169] | 21 |  |
|  | 61 | O=C(Cc1cccc2ccccc12)NCc1[nH]nc(-c2ccc(F)cc2)c1-c1ccncc1 [Example B-0171] | 21 |  |
|  | 16 | O=C(NCc1[nH]nc(-c2ccc(F)cc2)c1-c1ccncc1)Nc1ccc(OC(F)(F)F)cc1 [Example B-0172] | 11 |  |
|  | 41 | O=C(NCc1[nH]nc(-c2ccc(F)cc2)c1-c1ccncc1)Nc1ccccc1 [Example B-0175] | 31 |  |
| 5 |  | O=C(NCc1[nH]nc(-c2ccc(F)cc2)c1-c1ccncc1)Nc1ccccc1-c1ccccc1 [Example B-0181] | 2 |  |
|  | 65 | O=C(NCc1[nH]nc(-c2ccc(F)cc2)c1-c1ccncc1)Nc1ccccc1OC(F)(F)F [Example B-0185] | 25 |  |
| 40 |  | Cc1cc(C)c(NC(=O)NCc2[nH]nc(-c3ccc(F)cc3)c2-c2ccncc2)c(C)c1 [Example B-0186] | 25 |  |
|  | 59 | COc1ccc(NC(=O)NCc2[nH]nc(-c3ccc(F)cc3)c2-c2ccncc2)cc1 [Example B-0190] | 31 |  |
